The subject of data set [1] is mTORc1 signaling, pS6 (Ser240/244) in MEF TSCl−/− cells. Briefly: Cell-based assay for rapalog potency (pS6) in MEF TSCl−/− cells. The conditions noted are these: Mus musculus, 2 hours treatment, average from multiple assays. In short, it runs like this:
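Constitutively mTORc1-active MEF TSC1−/− cells were starved 2 h in glucose/bicarbonate/HEPES DPBS, then exposed 2 h at 37° C to 8-point, 3.16-fold compound dilutions. After fixation, pS6 (Ser240/244) and p4EBP1 (Thr37/46) immunofluorescence was imaged; IC50 (nM) from pS6, averaged over multiple assays.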

Data set [2] concerns the target T1, FKBP12 (Homo sapiens, UniProt P62942).
T1 construct: made in house; host or cells: E. coli
The experiment in a line: SPR assay, binding affinity to FKBP12. The conditions noted are these: equilibrium dissociation constant. From the text:
N-terminal avi-his6-tagged FKBP fusion proteins were expressed in E. coli and purified with nickel chromatography using standard procedures. Biotinylated his-avi-FKBPs were immobilized on a streptavidin chip using a Biacore 8K (GE Healthcare). […] The single-cycle kinetics data were fit to a 1:1 binding model to measure the association rate ka (1/Ms), the dissociation rate kd (1/s) and the affinity KD (M). […] The single-cycle kinetics data was fit to a 1:1 binding model to measure the association rate ka (1/Ms), the dissociation rate kd (1/s) and the apparent affinity KD (M) for ternary complex formation. The equilibrium dissociation constants (KD) to FKBP12, FKBP51, and FKBP52 are shown below in Table 6.
(In SPR one partner is held on a chip, and binding of the other changes the refractive index at the surface.)

Data set [3] can be described thus: Pharmacokinetic profile in rats. The data set is classed as in vivo. The settings on record: male, Sprague-Dawley, blood, rat. As for the experimental part: All procedures involving animals were approved by the Institutional Animal Care and Use Committee of the Novartis Institutes for Biomedical Research, Cambridge, Mass., USA. Adult Sprague Dawley (SD) male rats were purchased from Envigo (Indianapolis, USA). Once imported, rats were maintained at the specific pathogen free facilities with controlled temperature and light (22° C., 12-h light/12-h dark cycle: lights on at 0600 h/lights off at 1800 h) and with ad libitum access to food and water. Rats were acclimated for at least 3 days before experiments commenced.
Various organs were collected and frozen in liquid nitrogen. Blood was collected via a tail vein or a cardiac puncture (terminal) and frozen for further pharmacokinetics analyses. All tissues were stored at −80° C. until analyzed.
Concentrations were determined using HPLC/Mass spectrometry.
Compounds were administered to rats aged 7-9 weeks (N=3 per group) p.o. at 3 mg/kg and intravenously (i.v). at 1 mg/kg (FIGS. 3A and 3B).

For data set [4], the system named is mTORC1 pathway (S6 phosphorylation) in rat liver. The experiment in a line: Inhibition of mTORc1 pathway in rat liver (p-S6/t-S6 immunoblot). The data set is classed as in vivo. The conditions noted are these: single oral dose 1, 3 and 10 mg/kg, liver at 3 hours, compared with vehicle control. As to the method:
Rats were given a single oral dose of Compound 2 at 1, 3 or 10 mg/kg, and liver samples were collected at 3 hours following dosing. Rats treated with a vehicle were used as a control. […] GAPDH (glyceraldehyde 3-phosphate dehydrogenase) was used to control for protein loading. […] In the histogram depicted in FIG. 4B, average arbitrary values that indicate p-S6/t-S6 ratios are shown above each bar. X axis represents orally given doses (1, 3, or 10 mg/kg). Y-axis represents arbitrary units. Six rats were used in each experimental group. Data are mean±standard deviation. Data were analyzed with a one way ANOVA followed by Dunnett's multiple comparison tests, where means from all groups were compared to the vehicle treated group. […]. […]
Various organs were collected and frozen in liquid nitrogen. […] All tissues were stored at −80° C. until analyzed.
For protein extraction, snap frozen tissues were lysed in MSD Lysis Buffer (MSD, Rockville, Md.), supplemented with complete EDTA free protease inhibitor and PhosSTOP phosphatase inhibitor tablets (Roche, Manheim, Germany), and centrifuged at 13,000 g for 20 min at 4° C. […] Protein was quantified with BCA protein assay (Thermo Scientific, MA). […] Glyceraldehyde 3-phosphate dehydrogenase (GAPDH) detected with an anti-GAPDH antibody (#5174, Cell Signaling Technologies, MA) was used as a protein loading control. […]

Usually IC50 stands for the point on the concentration scale where inhibition reaches its midpoint. For orientation: Kd means the constant that tells how readily two partners part at equilibrium. Read a low Kd as higher affinity. For orientation: clearance means the rate of elimination divided by the concentration. Broadly, the half-life is the time in which the quantity being followed falls by half. The term bioavailability denotes the share of a dose that reaches the circulation, judged against a reference dose that is usually intravenous. Low values mean poor availability, high ones good availability.

T1 sequence (P62942 whole entry): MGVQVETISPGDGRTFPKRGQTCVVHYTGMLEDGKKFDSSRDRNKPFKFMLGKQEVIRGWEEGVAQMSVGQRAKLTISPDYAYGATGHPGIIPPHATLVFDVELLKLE

On to `CO[C@@H]1C[C@H](C[C@@H](C)[C@@H]2CC[C@H](C)/C=C(\C)[C@@H](O)[C@@H](OC)C(=O)[C@H](C)C[C@H](C)/C=C/C=C/C=C(\C)[C@@H](NS(C)(=O)=O)C[C@@H]3CC[C@@H](C)[C@@](O)(O3)C(=O)C(=O)N3CCCC[C@H]3C(=O)O2)CC[C@H]1O` [Compound 2], for which the IC50 in data set [1] was found to be 0.11 nM. In data set [2], this molecule had a dissociation constant Kd of 4.8 nM. Moreover, in data set [3] (iv, i.v. 1 mg/kg), the clearance came to 13 mL/min/kg. For the same molecule, the half-life in data set [3] (iv, i.v. 1 mg/kg, read-out: iv. terminal half-life (converted)) is 19 h. Besides, the bioavailability in data set [3] (oral, p.o. 3 mg/kg and i.v. 1 mg/kg, solution formulation) amounted to 16%. In addition, in data set [4], the “de-phosphorylation (inactivation) of S6 in rat livers” value is listed as “significant de-phosphorylation (inactivation) of S6”.

The values are drawn from patent US12281125B2, “Rapamycin derivatives” (NOVARTIS AG, priority 2018, dated 2025).
